Experimental data taken from the NIST ThermoML archive (doi:10.1021/acs.jced.5b00654).
Several values for one entry are separate records, joined by “and”; a condition that tells them apart may be missing. Identical values can stand only once. Numbers after ± are expanded uncertainties.

Conditions: Fluid (supercritical or subcritical phases); for mass density: Buoyancy - hydrostatic balance with magnetic suspension - one sinker; for viscosity: Vibrating wire viscometry

CCCC [butane]
Conditions	mass density	viscosity
298.11 K, 162.81 kPa	4.0157 ± 0.019 kg/m3	0.007353 ± 0.00083 mPa·s
298.11 K, 162.82 kPa	4.016 ± 0.019 kg/m3	0.007354 ± 0.00083 mPa·s
298.12 K, 142.16 kPa	3.4823 ± 0.018 kg/m3	0.007359 ± 0.00083 mPa·s
298.12 K, 221.35 kPa	5.5716 ± 0.022 kg/m3	0.007333 ± 0.00083 mPa·s
298.12 K, 221.39 kPa	5.5728 ± 0.022 kg/m3	0.007334 ± 0.00083 mPa·s
298.13 K, 123.43 kPa	3.0049 ± 0.018 kg/m3	0.007365 ± 0.00083 mPa·s
298.13 K, 123.44 kPa	3.0052 ± 0.018 kg/m3	0.007363 ± 0.00083 mPa·s
298.13 K, 142.17 kPa	3.4826 ± 0.019 kg/m3	0.007359 ± 0.00083 mPa·s
298.14 K, 61.79 kPa	1.4756 ± 0.016 kg/m3	0.007376 ± 0.00083 mPa·s
298.14 K, 61.8 kPa	1.4758 ± 0.016 kg/m3	0.007378 ± 0.00083 mPa·s
298.14 K, 82.37 kPa	1.9794 ± 0.017 kg/m3	0.007375 ± 0.00083 mPa·s
298.14 K, 82.38 kPa	1.9797 ± 0.017 kg/m3	0.007372 ± 0.00083 mPa·s
298.14 K, 102.9 kPa	2.4887 ± 0.017 kg/m3	0.007369 ± 0.00083 mPa·s
298.14 K, 102.91 kPa	2.4889 ± 0.017 kg/m3	0.00737 ± 0.00083 mPa·s
298.14 K, 175.29 kPa	4.3414 ± 0.02 kg/m3 and 4.3415 ± 0.02 kg/m3	0.007347 ± 0.00083 mPa·s and 0.007346 ± 0.00083 mPa·s
298.14 K, 196.75 kPa	4.9091 ± 0.021 kg/m3	0.007342 ± 0.00083 mPa·s
298.14 K, 196.77 kPa	4.9096 ± 0.021 kg/m3	0.007341 ± 0.00083 mPa·s
298.15 K, 57.18 kPa	1.3635 ± 0.016 kg/m3 and 1.3636 ± 0.016 kg/m3	0.007377 ± 0.00083 mPa·s and 0.007378 ± 0.00083 mPa·s
322.98 K, 450.39 kPa	11.024 ± 0.031 kg/m3	0.007953 ± 0.00084 mPa·s
323 K, 450.69 kPa	11.032 ± 0.031 kg/m3	0.007951 ± 0.00084 mPa·s
323.01 K, 450.89 kPa	11.037 ± 0.031 kg/m3	0.007953 ± 0.00084 mPa·s
323.06 K, 392.1 kPa	9.426 ± 0.029 kg/m3	0.007958 ± 0.00084 mPa·s
323.08 K, 392.5 kPa	9.4391 ± 0.028 kg/m3	0.007954 ± 0.00084 mPa·s
323.09 K, 392.9 kPa	9.4492 ± 0.029 kg/m3	0.00796 ± 0.00084 mPa·s
323.11 K, 380.74 kPa	9.1236 ± 0.028 kg/m3	0.007958 ± 0.00084 mPa·s
323.11 K, 380.78 kPa	9.1236 ± 0.028 kg/m3	0.007958 ± 0.00084 mPa·s
323.12 K, 330.12 kPa	7.8092 ± 0.025 kg/m3	0.007967 ± 0.00084 mPa·s
323.12 K, 330.36 kPa	7.8164 ± 0.025 kg/m3	0.007967 ± 0.00084 mPa·s
323.12 K, 380.76 kPa	9.1272 ± 0.028 kg/m3	0.007958 ± 0.00084 mPa·s
323.13 K, 261.18 kPa	6.0223 ± 0.022 kg/m3	0.00797 ± 0.00084 mPa·s
323.13 K, 261.21 kPa	6.023 ± 0.022 kg/m3	0.007973 ± 0.00084 mPa·s
323.13 K, 301.54 kPa	7.0807 ± 0.024 kg/m3	0.00797 ± 0.00084 mPa·s
323.13 K, 303.39 kPa	7.1241 ± 0.024 kg/m3	0.007967 ± 0.00084 mPa·s
323.13 K, 305.32 kPa	7.1762 ± 0.024 kg/m3	0.00797 ± 0.00084 mPa·s
323.13 K, 330.63 kPa	7.8215 ± 0.025 kg/m3	0.007965 ± 0.00084 mPa·s
323.14 K, 58.2 kPa	1.2744 ± 0.016 kg/m3 and 1.2766 ± 0.016 kg/m3	0.007994 ± 0.00084 mPa·s and 0.007988 ± 0.00084 mPa·s
323.14 K, 58.21 kPa	1.2766 ± 0.016 kg/m3	0.00799 ± 0.00084 mPa·s
323.14 K, 66.38 kPa	1.4575 ± 0.016 kg/m3 and 1.4567 ± 0.016 kg/m3	0.007991 ± 0.00084 mPa·s and 0.007994 ± 0.00084 mPa·s
323.14 K, 66.39 kPa	1.4553 ± 0.016 kg/m3	0.007994 ± 0.00084 mPa·s
323.14 K, 90.51 kPa	1.9979 ± 0.017 kg/m3	0.007987 ± 0.00084 mPa·s
323.14 K, 90.52 kPa	1.9986 ± 0.017 kg/m3	0.00799 ± 0.00084 mPa·s
323.14 K, 112.93 kPa	2.5057 ± 0.017 kg/m3	0.00799 ± 0.00084 mPa·s
323.14 K, 112.94 kPa	2.5035 ± 0.017 kg/m3	0.007991 ± 0.00084 mPa·s
323.14 K, 112.96 kPa	2.5057 ± 0.017 kg/m3	0.00799 ± 0.00084 mPa·s
323.14 K, 132.43 kPa	2.9506 ± 0.018 kg/m3	0.007991 ± 0.00084 mPa·s
323.14 K, 132.44 kPa	2.9492 ± 0.018 kg/m3	0.007989 ± 0.00084 mPa·s
323.14 K, 132.46 kPa	2.9499 ± 0.018 kg/m3	0.007989 ± 0.00084 mPa·s
323.14 K, 184.24 kPa	4.1645 ± 0.02 kg/m3	0.007979 ± 0.00084 mPa·s
323.14 K, 215.63 kPa	4.9096 ± 0.021 kg/m3	0.007976 ± 0.00084 mPa·s
323.14 K, 215.65 kPa	4.9111 ± 0.021 kg/m3	0.007976 ± 0.00084 mPa·s
323.14 K, 215.87 kPa	4.9169 ± 0.021 kg/m3	0.007974 ± 0.00084 mPa·s
323.14 K, 261.28 kPa	6.0252 ± 0.023 kg/m3	0.007968 ± 0.00084 mPa·s
323.15 K, 150.03 kPa	3.3622 ± 0.018 kg/m3	0.007982 ± 0.00084 mPa·s
323.15 K, 150.04 kPa	3.3622 ± 0.018 kg/m3	0.007982 ± 0.00084 mPa·s
323.15 K, 184.35 kPa	4.1652 ± 0.02 kg/m3	0.00798 ± 0.00084 mPa·s
323.15 K, 184.36 kPa	4.1667 ± 0.02 kg/m3	0.007979 ± 0.00084 mPa·s
348.03 K, 813.85 kPa	19.576 ± 0.049 kg/m3	0.008652 ± 0.00084 mPa·s
348.03 K, 813.99 kPa	19.581 ± 0.049 kg/m3	0.008648 ± 0.00084 mPa·s
348.03 K, 814.13 kPa	19.586 ± 0.049 kg/m3	0.008649 ± 0.00084 mPa·s
348.12 K, 677.52 kPa	15.682 ± 0.041 kg/m3	0.008631 ± 0.00084 mPa·s
348.12 K, 677.82 kPa	15.691 ± 0.041 kg/m3	0.008631 ± 0.00084 mPa·s
348.13 K, 760.25 kPa	17.999 ± 0.046 kg/m3	0.00864 ± 0.00084 mPa·s
348.13 K, 760.34 kPa	18.002 ± 0.046 kg/m3	0.008637 ± 0.00084 mPa·s
348.14 K, 93.82 kPa	1.9124 ± 0.016 kg/m3	0.008599 ± 0.00084 mPa·s
348.14 K, 93.83 kPa	1.9131 ± 0.016 kg/m3	0.008597 ± 0.00084 mPa·s
348.14 K, 293.19 kPa	6.2173 ± 0.023 kg/m3	0.008602 ± 0.00084 mPa·s
348.14 K, 293.73 kPa	6.2296 ± 0.023 kg/m3	0.008602 ± 0.00084 mPa·s
348.14 K, 618.24 kPa	14.097 ± 0.037 kg/m3	0.008621 ± 0.00084 mPa·s
348.14 K, 618.34 kPa	14.099 ± 0.037 kg/m3	0.008628 ± 0.00084 mPa·s
348.15 K, 63.28 kPa	1.2845 ± 0.016 kg/m3	0.008588 ± 0.00084 mPa·s
348.15 K, 63.3 kPa	1.286 ± 0.016 kg/m3	–
